AC50 data for 8 molecules are collected here from ChEMBL document CHEMBL5291721, “A preclinical secondary pharmacology resource illuminates target-adverse drug reaction associations of marketed drugs” (Nat Commun, 2023).

Assay [1] addresses T1, 5-hydroxytryptamine receptor 1A (Homo sapiens, UniProt P08908).
T1 sequence (P08908 whole entry): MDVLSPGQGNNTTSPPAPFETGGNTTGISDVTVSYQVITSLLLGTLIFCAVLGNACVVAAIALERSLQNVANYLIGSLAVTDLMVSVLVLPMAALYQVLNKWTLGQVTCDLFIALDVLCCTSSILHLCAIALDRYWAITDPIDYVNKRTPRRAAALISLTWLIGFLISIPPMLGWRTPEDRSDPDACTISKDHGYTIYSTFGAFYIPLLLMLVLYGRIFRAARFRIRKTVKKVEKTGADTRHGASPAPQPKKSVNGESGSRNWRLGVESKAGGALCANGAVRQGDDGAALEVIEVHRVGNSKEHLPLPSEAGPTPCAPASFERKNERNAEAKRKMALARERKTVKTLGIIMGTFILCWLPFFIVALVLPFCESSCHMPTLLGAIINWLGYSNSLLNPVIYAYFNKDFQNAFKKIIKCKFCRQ

The target in assay [2] is T2, Thromboxane A2 receptor (Homo sapiens, UniProt P21731).
T2 sequence (P21731 whole entry): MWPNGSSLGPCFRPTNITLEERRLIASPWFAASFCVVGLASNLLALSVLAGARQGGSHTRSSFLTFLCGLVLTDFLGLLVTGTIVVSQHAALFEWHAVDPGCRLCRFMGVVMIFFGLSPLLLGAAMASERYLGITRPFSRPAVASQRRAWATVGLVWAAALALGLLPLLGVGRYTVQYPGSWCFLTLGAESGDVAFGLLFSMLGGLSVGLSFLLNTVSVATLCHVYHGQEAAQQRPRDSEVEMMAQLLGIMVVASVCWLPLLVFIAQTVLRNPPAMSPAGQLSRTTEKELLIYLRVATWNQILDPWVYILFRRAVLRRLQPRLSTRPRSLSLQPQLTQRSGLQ
It counts as functional, cell-based.

A further assay addresses D(1A) dopamine receptor (Homo sapiens, UniProt P21728).
Another assay addresses Acetylcholinesterase (Homo sapiens, UniProt P22303). It counts as functional.
Assay [3] concerns the target T3, Alpha-1A adrenergic receptor (Homo sapiens, UniProt P35348).
T3 sequence (P35348 whole entry): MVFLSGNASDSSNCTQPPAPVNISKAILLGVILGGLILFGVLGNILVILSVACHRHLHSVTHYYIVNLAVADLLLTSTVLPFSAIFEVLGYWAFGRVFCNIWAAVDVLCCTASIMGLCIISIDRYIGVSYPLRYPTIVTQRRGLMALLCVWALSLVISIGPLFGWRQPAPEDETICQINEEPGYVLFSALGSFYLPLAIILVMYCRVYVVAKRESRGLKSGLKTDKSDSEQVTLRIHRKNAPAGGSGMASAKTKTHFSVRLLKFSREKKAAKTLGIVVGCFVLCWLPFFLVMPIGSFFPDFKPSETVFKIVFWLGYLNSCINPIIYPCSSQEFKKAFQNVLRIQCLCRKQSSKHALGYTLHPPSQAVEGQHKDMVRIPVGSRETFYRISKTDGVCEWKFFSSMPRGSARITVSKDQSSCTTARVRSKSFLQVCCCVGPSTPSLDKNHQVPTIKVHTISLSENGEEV
It counts as functional, cell-based.

For another assay, the target named is Prothrombin (Homo sapiens, UniProt P00734). The class given is functional.
The target of assay [4] is 3',5'-cyclic-AMP phosphodiesterase 4A (Homo sapiens, UniProt P27815). It counts as functional.
The target in assay [5] is T2, Thromboxane A2 receptor. It counts as functional, cell-based. The source holds these as a separate data set.
The target of assay [6] is T3, Alpha-1A adrenergic receptor. The class given is functional, cell-based. This is another data set of the same source.
The target in assay [7] is T4, Alpha-2A adrenergic receptor (Homo sapiens, UniProt P08913).
T4 sequence (P08913 whole entry): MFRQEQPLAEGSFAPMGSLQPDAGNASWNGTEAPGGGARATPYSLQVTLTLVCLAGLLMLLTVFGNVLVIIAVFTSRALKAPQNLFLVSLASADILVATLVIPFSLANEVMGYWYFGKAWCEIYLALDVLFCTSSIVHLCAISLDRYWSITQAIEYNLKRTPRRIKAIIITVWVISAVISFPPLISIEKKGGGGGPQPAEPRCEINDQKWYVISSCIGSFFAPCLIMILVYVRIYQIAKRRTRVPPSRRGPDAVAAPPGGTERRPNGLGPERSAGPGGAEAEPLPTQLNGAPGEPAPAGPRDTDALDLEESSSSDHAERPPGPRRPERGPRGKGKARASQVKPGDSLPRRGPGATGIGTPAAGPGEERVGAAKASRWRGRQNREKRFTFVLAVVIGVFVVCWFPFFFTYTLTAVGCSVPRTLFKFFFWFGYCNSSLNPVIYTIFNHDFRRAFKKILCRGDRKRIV

Assay [8] has as its target T5, Muscarinic acetylcholine receptor M2 (Homo sapiens, UniProt P08172).
T5 sequence (P08172 whole entry): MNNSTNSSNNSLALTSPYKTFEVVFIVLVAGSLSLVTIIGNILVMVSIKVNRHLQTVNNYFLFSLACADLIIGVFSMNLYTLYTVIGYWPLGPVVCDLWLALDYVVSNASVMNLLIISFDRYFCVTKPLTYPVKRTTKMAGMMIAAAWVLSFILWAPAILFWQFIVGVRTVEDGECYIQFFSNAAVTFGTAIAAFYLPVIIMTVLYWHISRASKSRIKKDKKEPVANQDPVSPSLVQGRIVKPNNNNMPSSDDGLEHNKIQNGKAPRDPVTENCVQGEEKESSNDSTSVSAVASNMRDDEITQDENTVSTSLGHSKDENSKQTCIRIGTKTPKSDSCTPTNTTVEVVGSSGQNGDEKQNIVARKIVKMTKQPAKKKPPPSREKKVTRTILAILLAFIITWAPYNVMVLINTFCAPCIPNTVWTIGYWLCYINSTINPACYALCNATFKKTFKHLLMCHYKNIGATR

The target in the next assay is T6, Adenosine receptor A3 (Homo sapiens, UniProt P0DMS8).
T6 sequence (P0DMS8 whole entry): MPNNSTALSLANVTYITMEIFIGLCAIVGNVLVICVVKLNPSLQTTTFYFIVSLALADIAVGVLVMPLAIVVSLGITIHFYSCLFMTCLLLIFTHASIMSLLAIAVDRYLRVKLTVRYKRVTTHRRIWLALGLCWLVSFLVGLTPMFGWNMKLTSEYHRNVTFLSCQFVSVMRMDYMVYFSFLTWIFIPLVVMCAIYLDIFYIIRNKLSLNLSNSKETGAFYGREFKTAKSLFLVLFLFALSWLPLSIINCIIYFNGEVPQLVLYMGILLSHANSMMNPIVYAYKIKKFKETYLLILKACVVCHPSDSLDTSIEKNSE

For assay [9], the target named is 5-hydroxytryptamine receptor 2B (Homo sapiens, UniProt P41595). The class given is functional, cell-based.
Note: assay procedure not described here.

5-hydroxytryptamine receptor 2B, sequence (P41595 whole entry): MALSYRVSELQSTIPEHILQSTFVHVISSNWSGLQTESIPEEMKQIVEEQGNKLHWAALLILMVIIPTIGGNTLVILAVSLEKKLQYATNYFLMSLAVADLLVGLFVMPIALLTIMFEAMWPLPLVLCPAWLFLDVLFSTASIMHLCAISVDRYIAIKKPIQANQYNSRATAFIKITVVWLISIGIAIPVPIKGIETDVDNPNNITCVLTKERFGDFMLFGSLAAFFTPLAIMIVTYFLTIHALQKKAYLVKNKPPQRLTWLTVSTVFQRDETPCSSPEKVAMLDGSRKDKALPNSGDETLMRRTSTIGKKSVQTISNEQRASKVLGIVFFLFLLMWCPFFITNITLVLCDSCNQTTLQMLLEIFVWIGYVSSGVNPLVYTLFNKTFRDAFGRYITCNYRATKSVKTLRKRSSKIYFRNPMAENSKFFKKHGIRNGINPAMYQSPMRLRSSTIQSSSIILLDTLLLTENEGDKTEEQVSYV
D(1A) dopamine receptor, sequence (P21728 whole entry): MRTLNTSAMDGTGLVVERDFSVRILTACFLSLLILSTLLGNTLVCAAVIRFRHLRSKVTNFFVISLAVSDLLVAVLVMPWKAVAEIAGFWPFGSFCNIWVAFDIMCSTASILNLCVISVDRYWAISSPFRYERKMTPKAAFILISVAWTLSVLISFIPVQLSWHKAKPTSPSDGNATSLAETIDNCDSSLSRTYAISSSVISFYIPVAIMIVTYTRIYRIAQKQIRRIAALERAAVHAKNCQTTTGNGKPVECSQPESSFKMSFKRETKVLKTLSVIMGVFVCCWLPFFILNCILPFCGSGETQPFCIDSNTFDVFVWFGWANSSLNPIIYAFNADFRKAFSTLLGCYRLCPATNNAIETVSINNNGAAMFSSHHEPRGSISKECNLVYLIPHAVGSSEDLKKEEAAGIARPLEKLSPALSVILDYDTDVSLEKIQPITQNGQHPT
3',5'-cyclic-AMP phosphodiesterase 4A, sequence (P27815 whole entry): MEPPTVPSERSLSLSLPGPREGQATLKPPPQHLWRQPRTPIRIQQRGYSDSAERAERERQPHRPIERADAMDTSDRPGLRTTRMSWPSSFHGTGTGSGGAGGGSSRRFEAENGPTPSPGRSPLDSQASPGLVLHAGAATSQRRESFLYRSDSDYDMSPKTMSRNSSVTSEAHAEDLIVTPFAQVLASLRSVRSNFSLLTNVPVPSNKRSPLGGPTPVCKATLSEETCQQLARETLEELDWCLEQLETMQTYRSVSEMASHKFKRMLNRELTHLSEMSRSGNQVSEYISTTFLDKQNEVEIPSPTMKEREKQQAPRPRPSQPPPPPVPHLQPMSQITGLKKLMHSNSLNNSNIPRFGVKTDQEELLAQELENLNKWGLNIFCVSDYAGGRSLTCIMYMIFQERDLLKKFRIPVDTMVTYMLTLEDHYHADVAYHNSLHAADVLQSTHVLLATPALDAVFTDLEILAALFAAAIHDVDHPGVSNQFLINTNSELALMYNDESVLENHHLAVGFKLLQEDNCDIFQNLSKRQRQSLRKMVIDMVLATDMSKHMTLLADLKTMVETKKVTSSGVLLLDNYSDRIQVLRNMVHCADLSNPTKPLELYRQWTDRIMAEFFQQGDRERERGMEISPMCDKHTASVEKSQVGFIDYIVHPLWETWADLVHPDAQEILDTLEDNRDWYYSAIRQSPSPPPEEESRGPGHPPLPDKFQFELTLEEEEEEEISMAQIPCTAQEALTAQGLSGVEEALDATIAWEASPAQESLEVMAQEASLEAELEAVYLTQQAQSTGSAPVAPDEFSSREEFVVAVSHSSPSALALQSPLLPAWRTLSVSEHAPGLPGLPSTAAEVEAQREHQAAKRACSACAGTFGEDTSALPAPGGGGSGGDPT
Acetylcholinesterase, sequence (P22303 whole entry): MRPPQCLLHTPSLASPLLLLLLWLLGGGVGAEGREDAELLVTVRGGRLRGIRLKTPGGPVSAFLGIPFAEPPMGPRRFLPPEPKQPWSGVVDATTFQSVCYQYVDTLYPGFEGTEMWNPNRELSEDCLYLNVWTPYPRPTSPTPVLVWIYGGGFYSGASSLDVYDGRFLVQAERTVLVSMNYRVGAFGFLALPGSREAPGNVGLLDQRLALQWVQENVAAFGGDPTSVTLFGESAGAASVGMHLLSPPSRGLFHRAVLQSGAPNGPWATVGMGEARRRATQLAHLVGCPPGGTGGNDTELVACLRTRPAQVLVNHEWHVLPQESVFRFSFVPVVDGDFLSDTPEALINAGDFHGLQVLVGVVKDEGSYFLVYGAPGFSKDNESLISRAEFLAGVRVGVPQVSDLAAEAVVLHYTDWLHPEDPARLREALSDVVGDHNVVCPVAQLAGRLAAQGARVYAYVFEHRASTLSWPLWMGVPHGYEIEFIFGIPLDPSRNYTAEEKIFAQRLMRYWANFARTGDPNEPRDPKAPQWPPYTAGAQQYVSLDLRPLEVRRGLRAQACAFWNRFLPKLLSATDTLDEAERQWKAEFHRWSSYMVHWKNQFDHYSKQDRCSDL

Consider `CC[C@H]1OC(=O)[C@H](C)[C@@H](O[C@H]2C[C@@](C)(OC)[C@@H](O)[C@H](C)O2)[C@H](C)[C@@H](O[C@@H]2O[C@H](C)C[C@H](N(C)C)[C@H]2O)[C@](C)(OC)C[C@@H](C)C(=O)[C@H](C)[C@@H](O)[C@]1(C)O` [CLARITHROMYCIN], for which the concentration at half-maximal activity (AC50) (in [1]; on Thromboxane A2 receptor [2]; at D(1A) dopamine receptor; at Acetylcholinesterase; in assay [3]; at Prothrombin) was greater than 30 µM in each case. Moreover, the AC50 (in [4]; at Thromboxane A2 receptor [5]; in [6]; in [7]; in assay [8]; on Adenosine receptor A3) was greater than 30 µM in each case. In addition, in assay [9], the half-maximal activity concentration (AC50) was greater than 30 µM.

For the molecule `CCC[C@@H]1C[C@@H](C(=O)N[C@@H]([C@H]2O[C@H](SC)[C@H](OP(=O)(O)O)[C@@H](O)[C@H]2O)[C@H](C)Cl)N(C)C1` [CLINDAMYCIN PHOSPHATE], the AC50 (in assay [1]; at Thromboxane A2 receptor [2]; on D(1A) dopamine receptor; on Acetylcholinesterase; in assay [3]; at Prothrombin) was greater than 30 µM in each case. Further, the AC50 (in assay [4]; on Thromboxane A2 receptor [5]; in [6]; in assay [7]; in [8]; at Adenosine receptor A3) was greater than 30 µM in each case. Further, the AC50 in assay [9] was greater than 30 µM.

In the case of `C[C@@H]1C[C@H]2[C@@H]3C[C@H](F)C4=CC(=O)C=C[C@]4(C)[C@@]3(Cl)[C@@H](O)C[C@]2(C)[C@H]1C(=O)COC(=O)C(C)(C)C` [CLOCORTOLONE PIVALATE], the AC50 (in assay [1]; on Thromboxane A2 receptor [2]; on D(1A) dopamine receptor; on Acetylcholinesterase; in assay [3]; on Prothrombin) was greater than 30 µM in each case. Further, the AC50 was greater than 30 µM in assay [4]; greater than 30 µM on Thromboxane A2 receptor [5]; greater than 30 µM in assay [6]; greater than 30 µM in [7]; greater than 10 µM in assay [8]; 5.52 µM at Adenosine receptor A3. In assay [9], this molecule displayed an AC50 greater than 30 µM.

As for `O=P(O)(O)C(Cl)(Cl)P(=O)(O)O` [CLODRONIC ACID], the AC50 (in assay [1]; at Thromboxane A2 receptor [2]; on D(1A) dopamine receptor; at Acetylcholinesterase; in [3]; at Prothrombin) was greater than 30 µM in each case. Also, the AC50 (in [4]; on Thromboxane A2 receptor [5]; in assay [6]; in assay [7]; in assay [8]; on Adenosine receptor A3) was greater than 30 µM throughout. Moreover, the AC50 in assay [9] is greater than 30 µM.

In the case of `Nc1ccncc1` [DALFAMPRIDINE], the AC50 (in assay [1]; on Thromboxane A2 receptor [2]; on D(1A) dopamine receptor; on Acetylcholinesterase; in [3]; on Prothrombin) was greater than 30 µM each time. Also, the AC50 (in assay [4]; on Thromboxane A2 receptor [5]; in assay [6]; in assay [7]; in assay [8]; on Adenosine receptor A3) was greater than 30 µM throughout. The same molecule gave an AC50 in assay [9] greater than 30 µM.

For `Cc1onc(-c2c(Cl)cccc2Cl)c1C(=O)N[C@@H]1C(=O)N2[C@@H]1SC(C)(C)[C@@H]2C(=O)O` [DICLOXACILLIN], the AC50 (in [1]; at Thromboxane A2 receptor [2]; at D(1A) dopamine receptor; at Acetylcholinesterase; in assay [3]; on Prothrombin) was greater than 30 µM in each case. Moreover, the AC50 (in [4]; on Thromboxane A2 receptor [5]; in assay [6]; in assay [7]; in assay [8]; on Adenosine receptor A3) was greater than 30 µM throughout. For the same molecule, in assay [9], the AC50 was greater than 30 µM.

For `C[C@H]1O[C@@H](O[C@H]2[C@@H](O)C[C@H](O[C@H]3[C@@H](O)C[C@H](O[C@H]4CC[C@@]5(C)[C@H](CC[C@@H]6[C@@H]5CC[C@]5(C)[C@@H](C7=CC(=O)OC7)CC[C@]65O)C4)O[C@@H]3C)O[C@@H]2C)C[C@H](O)[C@@H]1O` [DIGITOXIN], the half-maximal activity concentration (AC50) (in assay [1]; at Thromboxane A2 receptor [2]; at D(1A) dopamine receptor; on Acetylcholinesterase; in assay [3]; at Prothrombin) was greater than 30 µM throughout. For the same molecule, the AC50 (in [4]; at Thromboxane A2 receptor [5]; in assay [6]; in assay [7]; in [8]; on Adenosine receptor A3) was greater than 30 µM each time. In addition, the AC50 in assay [9] was greater than 30 µM.

For the molecule `OC(CCCN1CCCCC1)(c1ccccc1)c1ccccc1` [DIPHENIDOL], the AC50 in assay [1] is 6.87 µM; at Thromboxane A2 receptor [2], greater than 30 µM; on D(1A) dopamine receptor it was 12.5 µM; on Acetylcholinesterase, greater than 30 µM; in assay [3] it was greater than 30 µM; on Prothrombin, greater than 30 µM. In addition, the AC50 in assay [4] is greater than 30 µM; at Thromboxane A2 receptor [5], greater than 30 µM; in [6], greater than 30 µM; in assay [7], greater than 30 µM; in assay [8], 0.944 µM; at Adenosine receptor A3, greater than 30 µM. In addition, the AC50 in assay [9] is greater than 30 µM.

The AC50 is the concentration giving half of the maximal activity seen. Lower therefore signals greater potency.
